For data set [1], the system named is Cyperus iria. The data set is described as follows: Preemergence weed control under flooded paddy conditions, CYPIR (Rice Flatsedge). For herbicidal effect rating, CYPIR: meaning of each grade not given here. The format is in vivo. The following applies: flooded paddy, rated three to four weeks after treatment.
Data set [2] concerns Cyperus serotinus, Rottb. The experiment in a line: Preemergence weed control under flooded paddy conditions, CYPSE (Flatsedge). For herbicidal effect rating, CYPSE: meaning of each grade not given here. The following applies: rated three to four weeks after treatment. The format is in vivo.
Data set [3] concerns Monochoria vaginalis, Presl. The experiment in a line: Preemergence weed control under flooded paddy conditions, MOOVA (Monochoria). For herbicidal effect rating, MOOVA: meaning of each grade not given here. Type of data set: in vivo. The settings on record: flooded paddy, rated three to four weeks after treatment.
Data set [4] has as its system Echinochloa oryzoides (Ard.) Fritsch. The experiment in a line: Preemergence weed control under flooded paddy conditions, ECHORC (Watergrass (Calif.)). For herbicidal effect rating, ECHORC: meaning of each grade not given here. Type of data set: in vivo. The settings on record: flooded paddy, rated three to four weeks after treatment.
Data set [5] relates to Sagittaria pygmaea, L. The experiment in a line: Preemergence weed control under flooded paddy conditions, SAGPY (Arrowhead (Pygmaea)). For herbicidal effect rating, SAGPY: meaning of each grade not given here. The format is in vivo. The following applies: flooded paddy, rated three to four weeks after treatment.
The subject of data set [6] is Oryza sativa, (L.) Tebonnet. The data set is described as follows: Rice tolerance to post-transplant applications under flooded paddy conditions (Example 187), ORYSAT (Rice, Tebonnet). The following applies: rated three to four weeks after treatment.
The mark [7] stands for this setting: Rate 0.0320 kg/ha, preemergence weeds.
Setting [8] is: Rate 0.0620 kg/ha, preemergence weeds.
Where [9] appears, read: Rate 0.1250 kg/ha, preemergence weeds.
Setting [10] is: Rate 0.2500 kg/ha, preemergence weeds.
Where [11] appears, read: 0.0313 kg/ha, preemergence weeds.
[12] abbreviates: 0.0625 kg/ha, preemergence weeds.
[13] abbreviates: 0.1250 kg/ha, preemergence weeds.
Setting [14] is: 0.2500 kg/ha, preemergence weeds.

With `COc1noc2ccc(-n3c(=O)cc(C(F)(F)F)n(C)c3=O)cc12` [Example 42, 3-(3-Methoxy-1,2-benzisoxazol-5-yl)-1-methyl-6-(trifluoromethyl)-2,4(1H,3H)-pyrimidinedione], the “herbicidal effect rating, CYPIR” value is listed as 0.0 in data set [1] (0.0313 kg/ha, preemergence); 0.0 in data set [1] (0.0625 kg/ha, preemergence); 0.0 in data set [1] (0.1250 kg/ha, preemergence); 0.0 in data set [1] (0.2500 kg/ha, preemergence). Besides, the “herbicidal effect rating, CYPSE” value stood at 0.0 in data set [2] (0.0313 kg/ha, preemergence); 0.0 in data set [2] (0.0625 kg/ha, preemergence); 0.0 in data set [2] (0.1250 kg/ha, preemergence); 0.0 in data set [2] (0.2500 kg/ha, preemergence). For the same molecule, the “herbicidal effect rating, MOOVA” value in data set [3] (0.0313 kg/ha, preemergence) is on record as 0.0; in data set [3] (0.0625 kg/ha, preemergence), 0.0; in data set [3] (0.1250 kg/ha, preemergence), 0.0; in data set [3] (0.2500 kg/ha, preemergence), 0.0. The “herbicidal effect rating, ECHORC” value in data set [4] (0.0313 kg/ha, preemergence) is on record as 0.0; in data set [4] (0.0625 kg/ha, preemergence), 0.0; in data set [4] (0.1250 kg/ha, preemergence) it was 0.0; in data set [4] (0.2500 kg/ha, preemergence), 0.0. Also, the “herbicidal effect rating, SAGPY” value in data set [5] (0.0313 kg/ha, preemergence) was 0.0; in data set [5] (0.0625 kg/ha, preemergence) it was 0.0; in data set [5] (0.1250 kg/ha, preemergence), 0.0; in data set [5] (0.2500 kg/ha, preemergence), 0.0. For the same molecule, the “herbicidal effect rating, ORYSAT (rice tolerance)” value (shortened to “herbicidal effect rating, ORYSAT”) in data set [6] (0.0313 kg/ha), in data set [6] (0.0625 kg/ha), in data set [6] (0.1250 kg/ha) and in data set [6] (0.2500 kg/ha) was 0.0 in each case.

For `Cc1ccc(CS(=O)(=O)NC(=O)c2nsc3ccc(-n4c(=O)cc(C(F)(F)F)n(C)c4=O)cc23)cc1` [Example 464, 1,2-Benzisothiazole-3-carboxamide, 5-[3,6-dihydro-3-methyl-2,6-dioxo-4-(trifluoromethyl)-1(2H)-pyrimidinyl]-N-[(p-methylbenzyl)sulfonyl]-], the CYPIR herbicidal rating in data set [1] (0.0320 kg/ha, preemergence) is recorded as 0.0; in data set [1] (0.0620 kg/ha, preemergence), 3.0; in data set [1] (0.1250 kg/ha, preemergence), 3.0; in data set [1] (0.2500 kg/ha, preemergence), 5.0. Besides, the CYPSE herbicidal rating is reported as 0.0 in data set [2] (0.0320 kg/ha, preemergence); 0.0 in data set [2] (0.0620 kg/ha, preemergence); 0.0 in data set [2] (0.1250 kg/ha, preemergence); 7.0 in data set [2] (0.2500 kg/ha, preemergence). The MOOVA herbicidal rating in data set [3] (0.0320 kg/ha, preemergence) stood at 7.0; in data set [3] (0.0620 kg/ha, preemergence) it was 9.0; in data set [3] (0.1250 kg/ha, preemergence) it was 9.0; in data set [3] (0.2500 kg/ha, preemergence) it was 6.0. For the same molecule, the ECHORC herbicidal rating in data set [4] (0.0320 kg/ha, preemergence) turned out to be 6.0; in data set [4] (0.1250 kg/ha, preemergence) it was 6.0; in data set [4] (0.2500 kg/ha, preemergence), 9.0. In addition, the SAGPY herbicidal rating in data set [5] (0.0320 kg/ha, preemergence) amounted to 0.0; in data set [5] (0.0620 kg/ha, preemergence), 0.0; in data set [5] (0.1250 kg/ha, preemergence) it was 6.0; in data set [5] (0.2500 kg/ha, preemergence) it was 4.0. The “ORYSAT herbicidal rating (rice tolerance)” value in data set [6] (0.0320 kg/ha) was found to be 0.0; in data set [6] (0.0620 kg/ha), 2.0; in data set [6] (0.1250 kg/ha), 2.0; in data set [6] (0.2500 kg/ha), 4.0.

As to `Cn1c(C(F)(F)F)cc(=O)n(-c2ccc3snc(C(=O)Nc4cc(C(C)(C)C)on4)c3c2)c1=O` [Example 331, 1,2-Benzisothiazole-3-carboxamide, N-(5-tert-butylisoxazol-3-yl)-5-[3,6-dihydro-3-methyl-2,6-dioxo-4-(trifluoromethyl)-1(2H)-pyrimidinyl]-], the “herbicidal effect rating, CYPIR” value is 0.0 in data set [1] (setting [7]), 0.0 in data set [1] (setting [8]), 5.0 in data set [1] (setting [9]) and 9.0 in data set [1] (setting [10]). Besides, the “herbicidal effect rating, CYPSE” value in data set [2] (setting [7]), in data set [2] (setting [8]), in data set [2] (setting [9]) and in data set [2] (setting [10]) was 0.0 in each case. In addition, the “herbicidal effect rating, MOOVA” value in data set [3] (setting [7]), in data set [3] (setting [8]), in data set [3] (setting [9]) and in data set [3] (setting [10]) was 9.0 each time. The “herbicidal effect rating, ECHORC” value is given as 0.0 in data set [4] (setting [7]), 2.0 in data set [4] (setting [8]), 4.0 in data set [4] (setting [9]) and 8.0 in data set [4] (setting [10]). For the same molecule, the “herbicidal effect rating, SAGPY” value in data set [5] (setting [7]), in data set [5] (setting [8]), in data set [5] (setting [9]) and in data set [5] (setting [10]) was 0.0 throughout. Further, the “herbicidal effect rating ORYSAT” value in data set [6] (Rate 0.0320 kg/ha) is given as 0.0; in data set [6] (Rate 0.0620 kg/ha), 0.0; in data set [6] (Rate 0.1250 kg/ha) it was 0.0; in data set [6] (Rate 0.2500 kg/ha), 1.0.

With `Cc1ccc(OC2CC(C)OC2=O)c(-c2nsc3ccc(-n4c(=O)cc(C(F)(F)F)n(C)c4=O)cc23)c1` (racemic) [Example 189, 1-Methyl-3-{3-{6-[(tetrahydro-5-methyl-2-oxo-3-furyl)oxy]-m-tolyl}-1,2-benzisothiazol-5-yl}-6-(trifluoromethyl)-2,4(1H,3H)-pyrimidinedione, DL-], the “herbicidal effect rating, CYPIR” value in data set [1] (setting [11]), in data set [1] (setting [12]), in data set [1] (setting [13]) and in data set [1] (setting [14]) was 0.0 each time. Besides, the “herbicidal effect rating, CYPSE” value in data set [2] (setting [11]), in data set [2] (setting [12]), in data set [2] (setting [13]) and in data set [2] (setting [14]) was 0.0 throughout. Moreover, the “herbicidal effect rating, MOOVA” value in data set [3] (setting [11]) worked out at 0.0; in data set [3] (setting [12]), 0.0; in data set [3] (setting [13]), 2.0; in data set [3] (setting [14]), 8.0. Also, the “herbicidal effect rating, ECHORC” value in data set [4] (setting [11]), in data set [4] (setting [12]), in data set [4] (setting [13]) and in data set [4] (setting [14]) was 0.0 in each case. The “herbicidal effect rating, SAGPY” value in data set [5] (setting [11]), in data set [5] (setting [12]), in data set [5] (setting [13]) and in data set [5] (setting [14]) was 0.0 each time. The “herbicidal effect rating, ORYSAT” value in data set [6] (0.0313 kg/ha), in data set [6] (0.0625 kg/ha), in data set [6] (0.1250 kg/ha) and in data set [6] (0.2500 kg/ha) was 0.0 in each case.

Regarding `C=CCOc1ccc(C)cc1-c1nsc2ccc(-n3c(=O)cc(C(F)(F)F)n(C)c3=O)cc12` [Example 65, 3-{3-[6-(Allyloxy)-m-tolyl]-1,2-benzisothiazol-5-yl}-1-methyl-6-(trifluoromethyl)-2,4(1H,3H)-pyrimidinedione], the “herbicidal effect rating, CYPIR” value is given as 0.0 in data set [1] (0.0313 kg/ha, preemergence); 0.0 in data set [1] (0.0625 kg/ha, preemergence); 0.0 in data set [1] (0.1250 kg/ha, preemergence); 0.0 in data set [1] (0.2500 kg/ha, preemergence). Besides, the “herbicidal effect rating, CYPSE” value in data set [2] (0.0313 kg/ha, preemergence) was determined as 0.0; in data set [2] (0.0625 kg/ha, preemergence), 0.0; in data set [2] (0.1250 kg/ha, preemergence), 0.0; in data set [2] (0.2500 kg/ha, preemergence) it was 0.0. The “herbicidal effect rating, MOOVA” value is reported as 0.0 in data set [3] (0.0313 kg/ha, preemergence); 0.0 in data set [3] (0.0625 kg/ha, preemergence); 0.0 in data set [3] (0.1250 kg/ha, preemergence); 0.0 in data set [3] (0.2500 kg/ha, preemergence). Moreover, the “herbicidal effect rating, ECHORC” value is on record as 0.0 in data set [4] (0.0313 kg/ha, preemergence); 0.0 in data set [4] (0.0625 kg/ha, preemergence); 0.0 in data set [4] (0.1250 kg/ha, preemergence); 0.0 in data set [4] (0.2500 kg/ha, preemergence). In addition, the “herbicidal effect rating, SAGPY” value in data set [5] (0.0313 kg/ha, preemergence) worked out at 0.0; in data set [5] (0.0625 kg/ha, preemergence) it was 0.0; in data set [5] (0.1250 kg/ha, preemergence) it was 0.0; in data set [5] (0.2500 kg/ha, preemergence) it was 0.0. Moreover, the “herbicidal effect rating, ORYSAT” value in data set [6] (0.0313 kg/ha), in data set [6] (0.0625 kg/ha), in data set [6] (0.1250 kg/ha) and in data set [6] (0.2500 kg/ha) was 0.0 throughout.
